Patent publication US9730938B2, “Bruton's tyrosine kinase inhibitor combinations and uses thereof” (Pharmacyclics LLC, priority 2014, dated 2017)

What was measured:
Assay type in all cases: cell-based
[1] = test system: OCI-LY-10; experiment: Combined drug treatment cell viability, CellTiter-Glo assay (Example 1); details: IDH1i 10 uM / MALT1i 5 uM / medium alone, 3 days
Experimental: (§1) DLBCL cells at either 1×10^4 cells or 2×10^4 cells were plated onto each well of a 96-W plate (Table 1).
(§2) The stock solutions for the IDH1 inhibitor AGI5198 and the MALT1 inhibitor MI-2 were each prepared at 50 mM concentration.
(§3) The 96-W plate was then incubated for 3 days. Cell viability was examined using a CellTiter-Glo assay.
(§4) A 40 μL of CellTiter-Glo reagent was added directly into each well of the 96-W plate. The plate was then shaken on a Shaker (Labsystem Wellmix) at speed 5 for 10-20 min at room temperature. Next, 100 μL of the mixed medium was transferred to a white, non-transparent, flat bottom 96-W plate for assaying. A Flexstation 3 luminometer was used for detecting and measuring the luminescent signals. Measurements were taken at room temperature.
(§5) In general, the combination is described as synergistic (CI<1), additive (CI=1), or antagonistic (CI>1). Synergism is further separated into very strong synergism (<0.1), strong synergism (0.1-0.3), synergism (0.3-0.7), moderate synergism (0.7-0.85), and slight synergism (0.85-0.9).

[2] = test system: OCI-LY-3; experiment: as above; details: IDH1i 10 uM / MALT1i 5 uM / medium alone, 3 days
Experimental: as §1, §2, §3, §4, §5

[3] = test system: SU-DHL-2; experiment: as above; details: IDH1i 10 uM / MALT1i 200 nM / medium alone, 3 days
Experimental: as §1, §2, §3, §4, §5

[4] = test system: TMD8; experiment: as above; details: IDH1i 10 uM / MALT1i 100 nM / medium alone, 3 days
Experimental: as §1, §2, §3, §4, §5

[5] = test system: U2932; experiment: as above; details: IDH1i 10 uM / MALT1i 200 nM / medium alone, 3 days
Experimental: as §1, §2, §3, §4, §5

[6] = test system: TMD8; experiment: Combined drug treatment cell viability, CellTiter-Glo assay (Example 2); details: JAK3 10 μM / MCL-1 3 μM / medium alone, 3 days

C=CC(=O)N1CCC[C@@H](n2nc(-c3ccc(Oc4ccccc4)cc3)c3c(N)ncnc32)C1 [ibrutinib, 1-((R)-3-(4-amino-3-(4-phenoxyphenyl)-1H-pyrazolo[3,4-d]pyrimidin-1-yl)piperidin-1-yl)prop-2-en-1-one]
luminescence (CellTiter-Glo) ([1]; ibrutinib 0.0256 nM): 61548.88 | luminescence (CellTiter-Glo) ([1]; ibrutinib 0.128 nM): 68196.56 | luminescence (CellTiter-Glo) ([1]; ibrutinib 0.64 nM): 63983.91 | luminescence (CellTiter-Glo) ([1]; ibrutinib 3.2 nM): 51190.81 | luminescence (CellTiter-Glo) ([1]; ibrutinib 16 nM): 27324.38 | luminescence (CellTiter-Glo) ([1]; ibrutinib 80 nM): 23511.43 | luminescence (CellTiter-Glo) ([1]; ibrutinib 400 nM): 23784.91 | luminescence (CellTiter-Glo) ([1]; ibrutinib 2000 nM): 24452.84 | luminescence (CellTiter-Glo) ([1]; ibrutinib 10000 nM): 24826.24 | luminescence (CellTiter-Glo) ([2]; ibrutinib 0.0256 nM): 63957.70 | luminescence (CellTiter-Glo) ([2]; ibrutinib 0.128 nM): 59441.78 | luminescence (CellTiter-Glo) ([2]; ibrutinib 0.64 nM): 63322.70 | luminescence (CellTiter-Glo) ([2]; ibrutinib 3.2 nM): 66789.02 | luminescence (CellTiter-Glo) ([2]; ibrutinib 16 nM): 64655.70 | luminescence (CellTiter-Glo) ([2]; ibrutinib 80 nM): 68972.20 | luminescence (CellTiter-Glo) ([2]; ibrutinib 400 nM): 64472.02 | luminescence (CellTiter-Glo) ([2]; ibrutinib 2000 nM): 55749.79 | luminescence (CellTiter-Glo) ([2]; ibrutinib 10000 nM): 63477.51 | luminescence (CellTiter-Glo) ([3]; ibrutinib 0.0256 nM): 141202.0 | luminescence (CellTiter-Glo) ([3]; ibrutinib 0.128 nM): 146159.1 | luminescence (CellTiter-Glo) ([3]; ibrutinib 0.64 nM): 159399.0 | luminescence (CellTiter-Glo) ([3]; ibrutinib 3.2 nM): 161613.5 | luminescence (CellTiter-Glo) ([3]; ibrutinib 16 nM): 155353.5 | luminescence (CellTiter-Glo) ([3]; ibrutinib 80 nM): 164140.7 | luminescence (CellTiter-Glo) ([3]; ibrutinib 400 nM): 159908.6 | luminescence (CellTiter-Glo) ([3]; ibrutinib 2000 nM): 154426.1 | luminescence (CellTiter-Glo) ([3]; ibrutinib 10000 nM): 111485.8 | luminescence (CellTiter-Glo) ([4]; ibrutinib 0.0256 nM): 32496.06 | luminescence (CellTiter-Glo) ([4]; ibrutinib 0.128 nM): 32828.16 | luminescence (CellTiter-Glo) ([4]; ibrutinib 0.64 nM): 29180.29 | luminescence (CellTiter-Glo) ([4]; ibrutinib 3.2 nM): 31383.77 | luminescence (CellTiter-Glo) ([4]; ibrutinib 16 nM): 27190.31 | luminescence (CellTiter-Glo) ([4]; ibrutinib 80 nM): 28263.05 | luminescence (CellTiter-Glo) ([4]; ibrutinib 400 nM): 25674.76 | luminescence (CellTiter-Glo) ([4]; ibrutinib 2000 nM): 23421.20 | luminescence (CellTiter-Glo) ([4]; ibrutinib 10000 nM): 10819.72 | luminescence (CellTiter-Glo) ([5]; ibrutinib 0.0256 nM): 63123.80 | luminescence (CellTiter-Glo) ([5]; ibrutinib 0.128 nM): 57150.28 | luminescence (CellTiter-Glo) ([5]; ibrutinib 0.64 nM): 53722.16 | luminescence (CellTiter-Glo) ([5]; ibrutinib 3.2 nM): 53031.79 | luminescence (CellTiter-Glo) ([5]; ibrutinib 16 nM): 51023.93 | luminescence (CellTiter-Glo) ([5]; ibrutinib 80 nM): 49777.58 | luminescence (CellTiter-Glo) ([5]; ibrutinib 400 nM): 46009.54 | luminescence (CellTiter-Glo) ([5]; ibrutinib 2000 nM): 46858.01 | luminescence (CellTiter-Glo) ([5]; ibrutinib 10000 nM): 37935.94 | luminescence (CellTiter-Glo) ([6]; ibrutinib 0.0512 nM): 28324.66 | luminescence (CellTiter-Glo) ([6]; ibrutinib 0.256 nM): 28516.97 | luminescence (CellTiter-Glo) ([6]; ibrutinib 1.28 nM): 28727.97 | luminescence (CellTiter-Glo) ([6]; ibrutinib 6.4 nM): 28578.40 | luminescence (CellTiter-Glo) ([6]; ibrutinib 32 nM): 28802.75 | luminescence (CellTiter-Glo) ([6]; ibrutinib 160 nM): 29096.55
